In PubChem BioAssay (NCI):
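Each compound was tested at five concentrations against cells in 96-well plates for 48 hours. GI50 marks 50% less growth. Definition used: TGI = concentration required for complete inhibition of growth.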

Columns and labels:
Test in all cases: NCI anticancer screen, dose series, 48 h
[1] = system: 786-0 renal
[2] = system: A498 renal
[3] = system: A549 NSCLC
[4] = system: ACHN renal
[5] = system: BT-549 breast
[6] = system: CAKI-1 renal
[7] = system: CCRF-CEM leukemia
[8] = system: COLO 205 colon
[9] = system: DU-145 prostate
[10] = system: EKVX NSCLC
[11] = system: HCC-2998 colon
[12] = system: HCT-116 colon
[13] = system: HCT-15 colon
[14] = system: HL-60(TB) leukemia
[15] = system: HOP-62 NSCLC
[16] = system: HOP-92 NSCLC
[17] = system: HS 578T breast
[18] = system: HT29 colon
[19] = system: IGROV1 ovarian
[20] = system: K-562 leukemia
[21] = system: KM12 colon
[22] = system: LOX IMVI melanoma
[23] = system: M14 melanoma
[24] = system: MALME-3M melanoma
[25] = system: MCF7 breast
[26] = system: MDA-MB-231 breast
[27] = system: MDA-MB-435
[28] = system: MOLT-4 leukemia
[29] = system: NCI-H226 lung
[30] = system: NCI-H460 lung
[31] = system: NCI-H522 lung
[32] = system: NCI/ADR-RES ovarian
[33] = system: OVCAR-3 ovarian
[34] = system: OVCAR-4 ovarian
[35] = system: OVCAR-5 ovarian
[36] = system: OVCAR-8 ovarian
[37] = system: PC-3 prostate
[38] = system: RPMI-8226 leukemia
[39] = system: RXF 393 renal
[40] = system: SF-268 CNS
[41] = system: SF-295 CNS
[42] = system: SF-539 CNS
[43] = system: SK-MEL-2 melanoma
[44] = system: SK-MEL-28 melanoma
[45] = system: SK-MEL-5 melanoma
[46] = system: SK-OV-3 ovarian
[47] = system: SN12C renal
[48] = system: SNB-19 CNS
[49] = system: SNB-75 CNS
[50] = system: SR leukemia
[51] = system: SW-620 colon
[52] = system: T-47D breast
[53] = system: TK-10 renal
[54] = system: U251 CNS
[55] = system: UACC-257 melanoma
[56] = system: UACC-62 melanoma
[57] = system: UO-31 renal

Cc1cc2c(-c3ccc(NC(=O)[C@H](N)CC(C)(C)C)cc3C)ccnc2[nH]1
GI50 [1]: 1.81 µM | TGI [1]: 3.4 µM | GI50 [2]: 2.2 µM | TGI [2]: 12.8 µM | GI50 [3]: 10.3 µM | TGI [3]: 26 µM | GI50 [4]: 10.5 µM | TGI [4]: 22.3 µM | GI50 [5]: 6.31 µM | TGI [5]: 19.5 µM | GI50 [6]: 4.5 µM | TGI [6]: 16.3 µM | GI50 [7]: 5.41 µM | TGI [7]: 28.2 µM | GI50 [8]: 1.82 µM | TGI [8]: 3.54 µM | GI50 [9]: 12.4 µM | TGI [9]: 25.5 µM | GI50 [10]: 11.2 µM | TGI [10]: 28.3 µM | GI50 [11]: 5.81 µM | TGI [11]: 20.9 µM | GI50 [12]: 4.85 µM | TGI [12]: 16.5 µM | GI50 [13]: 4.52 µM | TGI [13]: 21.8 µM | GI50 [14]: 2.89 µM | TGI [14]: 14 µM | GI50 [15]: 11.4 µM | TGI [15]: 24.6 µM | GI50 [16]: 2.67 µM | TGI [16]: 10.3 µM | GI50 [17]: 1.42 µM | TGI [17]: 12.3 µM | GI50 [18]: 2.72 µM | TGI [18]: 8.84 µM | GI50 [19]: 12.2 µM | TGI [19]: 26.1 µM | GI50 [20]: 2.82 µM | TGI [20]: 41.2 µM | GI50 [21]: 6.1 µM | TGI [21]: 21.2 µM | GI50 [22]: 5.9 µM | TGI [22]: 25.9 µM | GI50 [23]: 11 µM | TGI [23]: 23.5 µM | GI50 [24]: 10.2 µM | TGI [24]: 22.8 µM | GI50 [25]: 5.54 µM | TGI [25]: 30.5 µM | GI50 [26]: 7.43 µM | TGI [26]: 20.7 µM | GI50 [27]: 7 µM | TGI [27]: 19.9 µM | GI50 [28]: 4.69 µM | TGI [28]: 24 µM | GI50 [29]: 10.7 µM | TGI [29]: 27.2 µM | GI50 [30]: 5.7 µM | TGI [30]: 19 µM | GI50 [31]: 13 µM | TGI [31]: 26.3 µM | GI50 [32]: 13.4 µM | TGI [32]: 35.8 µM | GI50 [33]: 11.6 µM | TGI [33]: 24.8 µM | GI50 [34]: 6.95 µM | TGI [34]: 20.8 µM | GI50 [35]: 10.4 µM | TGI [35]: 22.3 µM | GI50 [36]: 13.6 µM | TGI [36]: 28 µM | GI50 [37]: 7.91 µM | TGI [37]: 22.1 µM | GI50 [38]: 2.77 µM | TGI [38]: 7.82 µM | GI50 [39]: 3.68 µM | TGI [39]: 16 µM | GI50 [40]: 11.1 µM | TGI [40]: 26.6 µM | GI50 [41]: 8.33 µM | TGI [41]: 25.7 µM | GI50 [42]: 7.97 µM | TGI [42]: 21 µM | GI50 [43]: 14 µM | TGI [43]: 27.2 µM | GI50 [44]: 8.48 µM | TGI [44]: 20.8 µM | GI50 [45]: 2.46 µM | TGI [45]: 6.53 µM | GI50 [46]: 12.4 µM | TGI [46]: 25.2 µM | GI50 [47]: 11.1 µM | TGI [47]: 23.6 µM | GI50 [48]: 11.3 µM | TGI [48]: 23.5 µM | GI50 [49]: 4.72 µM | TGI [49]: 18.1 µM | GI50 [50]: 2.08 µM | TGI [50]: 6.37 µM | GI50 [51]: 5.63 µM | TGI [51]: 19.7 µM | GI50 [52]: 6.71 µM | TGI [52]: 24.8 µM | GI50 [53]: 12.6 µM | TGI [53]: 25.3 µM | GI50 [54]: 5.99 µM | TGI [54]: 19.5 µM | GI50 [55]: 10.5 µM | TGI [55]: 23 µM | GI50 [56]: 8.6 µM | TGI [56]: 21 µM | GI50 [57]: 4.62 µM | TGI [57]: 18.1 µM
